Reference: patent USRE44543E1, “Naphthalenic compounds as termite bait toxicants” (priority 2002, dated 2013)

Columns and labels:
[1] = test system: Formosan termites; assay: Foraging box bait matrix bioassay, NHA sodium salt (Example 1); assay type: in vivo, Coptotermes formosanus
Protocol: For bait matrices with a final concentrations of NHA sodium salt of either 250 ppm or 500 ppm, the following procedure was used. A total of 25 mg or 50 mg, respectively of the NHA sodium salt was weighed using a Mettler balance. The NHA sodium salt complex was placed into a 50 ml sterile screw cap conical tube (#62.547.004; Sarstedt, Newton, N.C.) and dissolved with 40 ml nutritive solution described in Example 2 of U.S. patent application Ser. No. 09/294,499 filed Apr. 20, 1999, hereby incorporated by reference. Under a laminar flow hood, this product was mixed with 27 ml more of sterile nutritional supplement in a 250 ml sterile glass bottle (prepared as reported by M. G. Rojas and J. A. Morales-Ramos, April 2001, “Bait matrix for delivery of chitin synthesis inhibitors to the Formosan subterranean termite [Isoptera: Rhinotermitidae],” J. Econ. Entomol. 94(2) :506-510) hereby incorporated by reference. The bottle was tightly closed with a screw cap and manually shaken for 2 minutes. The mixture was added to 33 g of sterile cellulose as reported by Rojas and Morales-Ramos (2001) supra. The mixture was manually homogenized using a stainless steel spatula. To encase the bait matrix, tubes made of fibrous casing material (#124B; L.E.M. Products, Inc., Miamitown, Ohio) were cut into 150 mm long portions as reported by Rojas and Morales-Ramos (2001) supra. Fifty grams of bait matrix containing NHA sodium salt was compacted into one end of the inlet tube, and the open end and of the inlet tube was closed with a rubber band. The bait casing was placed inside of the foraging box adjacent to a 10 g piece of pine wood, taking care that it was partially covered with sand. Control bait matrix was prepared minus NHA, and presented in the same way as the treatment matrix to Formosan termites taken from three different colonies, with two boxes per locality totaling six boxes of 2500 termites per treatment. (Rojas and Morales-Ramos [2001] supra). All the experimental boxes were maintained under dark conditions at 27±1° C., and 90±2% relative humidity. Observations were done every 72 hours until all the termites died. The time to reach 100% mortality was measured and recorded. Mean comparisons among treatments and control were conducted.

[2] = test system: Reticulitermes spp.; assay: Field evaluation of bait matrix-NHA in underground Exterra bait stations, Past Christian, Mississippi; assay type: in vivo, Reticulitermes flavipes
Protocol: Underground Exterra bait stations (Ensystex, Fayetteville, N.C.) were placed according to manufacturer directions around 20 houses in a heavily Reticulitermes spp. infested neighborhood surrounded by mainly pine forest in Past Christian, Miss. The stations were placed, approximately 20 feet apart and 5 feet away from the outside wall of the house. Monthly inspections were conducted to determine termite activity. Once termites were found in the station, 150 g of the ARS bait matrix (see Example 2) containing 250 ppm NHA was placed in the station for the first year of the experiment. The dose was increased in the second year to 500 ppm because of the constant movement of termites from the forest area to the stations. The bait matrix-NHA was prepared as above and exposed to the termites contained in the Exterra bait station, consecutively monthly inspections were conducted and bait matrix-NHA was added as required. Data on bait consumption, temperature of the soil and time to kill the colony was recorded. Reticulitermes flavipes were very abundant in the study site. The distribution of the infestation was in patches. For the typical infested house, termites were found in 3 of 6 stations. For this type of environmental setting, 600 g of bait matrix which is equivalent to 240 mg of NHA was required to kill the colony. It took about 9 months (from September-May) for the bait matrix to show its effectiveness which was evaluated by the presence of dead termites on the surface of the bait matrix container and interceptors.

[3] = date 01/29 (17th of 18, second winter)
[4] = date 02/26 (18th of 18, second winter)
[5] = typical infested house, termites in 3 of 6 stations

O=C1c2cccc3cccc(c23)C(=O)N1O [NHA, N-hydroxynaphthalimide]
acceptability of the bait ([1]; NHA >500 ppm): reduced | time some termite colonies required to start feeding on the bait ([1]; NHA >500 ppm): more than 8 hours | time to mortality of a 2,500-worker colony ([1]; depending on the health and age of the colony): about 3 weeks | NHA concentration at which consumption is almost non existent ([1]; in vivo): above 20,000 ppm | NHA concentration at which the bait becomes unpalatable ([1]; in vivo): above 10,000 ppm | time for the bait matrix to show its effectiveness (dead termites on bait container and interceptors) ([2]; September-May): about 9 months | Active Stations Number ([2]; date 01/29 (5th of 18)): 6 | Active Stations Percentage ([2]; date 01/29 (5th of 18)): 24.0% | Bait (Cum. weight in g) Consumed ([2]; date 01/29 (5th of 18)): 1,500 g | Active Stations Number [2, 3]: 11 | Active Stations Percentage [2, 3]: 24.4% | Bait (Cum. weight in g) Consumed [2, 3]: 11,850 g | Active Stations Number ([2]; date 02/26 (6th of 18)): 12 | Active Stations Percentage ([2]; date 02/26 (6th of 18)): 50.0% | Bait (Cum. weight in g) Consumed ([2]; date 02/26 (6th of 18)): 1,500 g | Active Stations Number [2, 4]: 15 | Active Stations Percentage [2, 4]: 33.3% | Bait (Cum. weight in g) Consumed [2, 4]: 12,600 g | Active Stations Number ([2]; date 03/27 (7th of 18)): 13 | Active Stations Percentage ([2]; date 03/27 (7th of 18)): 56.5% | Bait (Cum. weight in g) Consumed ([2]; date 03/27 (7th of 18)): 1,500 g | Active Stations Number ([2]; date 05/01 (8th of 18)): 16 | Active Stations Percentage ([2]; date 05/01 (8th of 18)): 55.2% | Bait (Cum. weight in g) Consumed ([2]; date 05/01 (8th of 18)): 3,150 g | Active Stations Number ([2]; date 05/29 (9th of 18)): 11 | Active Stations Percentage ([2]; date 05/29 (9th of 18)): 36.7% | Bait (Cum. weight in g) Consumed ([2]; date 05/29 (9th of 18)): 3,750 g | Active Stations Number ([2]; date 06/26 (10th of 18)): 16 | Active Stations Percentage ([2]; date 06/26 (10th of 18)): 50.0% | Bait (Cum. weight in g) Consumed ([2]; date 06/26 (10th of 18)): 4,800 g | Active Stations Number ([2]; date 07/31 (11th of 18)): 12 | Active Stations Percentage ([2]; date 07/31 (11th of 18)): 33.3% | Bait (Cum. weight in g) Consumed ([2]; date 07/31 (11th of 18)): 6,000 g | Active Stations Number ([2]; date 08/28 (12th of 18)): 17 | Active Stations Percentage ([2]; date 08/28 (12th of 18)): 47.2% | Bait (Cum. weight in g) Consumed ([2]; date 08/28 (12th of 18)): 7,200 g | Active Stations Number ([2]; date 09/25 (13th of 18)): 21 | Active Stations Percentage ([2]; date 09/25 (13th of 18)): 52.5% | Bait (Cum. weight in g) Consumed ([2]; date 09/25 (13th of 18)): 7,950 g | Active Stations Number ([2]; date 09/26 (1st of 18), NHA 250 ppm first year, 500 ppm second year): 22 | Bait (Cum. weight in g) Consumed ([2]; date 09/26 (1st of 18), from fully consumed bait bags): 0.0 g | Active Stations Percentage ([2]; date 09/26 (1st of 18), of cumulative stations ever active): 95.7% | Active Stations Number ([2]; date 10/27 (2nd of 18)): 10 | Active Stations Percentage ([2]; date 10/27 (2nd of 18)): 43.5% | Bait (Cum. weight in g) Consumed ([2]; date 10/27 (2nd of 18)): 600 g | Active Stations Number ([2]; date 11/02 (14th of 18)): 18 | Active Stations Percentage ([2]; date 11/02 (14th of 18)): 42.9% | Bait (Cum. weight in g) Consumed ([2]; date 11/02 (14th of 18)): 10,800 g | Active Stations Number ([2]; date 11/20 (3rd of 18)): 10 | Active Stations Percentage ([2]; date 11/20 (3rd of 18)): 41.7% | Bait (Cum. weight in g) Consumed ([2]; date 11/20 (3rd of 18)): 1,200 g | Active Stations Number ([2]; date 11/27 (15th of 18)): 13 | Active Stations Percentage ([2]; date 11/27 (15th of 18)): 28.9% | Bait (Cum. weight in g) Consumed ([2]; date 11/27 (15th of 18)): 11,250 g | Active Stations Number ([2]; date 12/18 (4th of 18)): 8 | Active Stations Percentage ([2]; date 12/18 (4th of 18)): 33.3% | Bait (Cum. weight in g) Consumed ([2]; date 12/18 (4th of 18)): 1,500 g | Active Stations Number ([2]; date 12/29 (16th of 18)): 13 | Active Stations Percentage ([2]; date 12/29 (16th of 18)): 28.9% | Bait (Cum. weight in g) Consumed ([2]; date 12/29 (16th of 18)): 11,850 g | NHA required to kill the colony (equivalent of bait matrix) [2, 5]: 240 mg | bait matrix required to kill the colony [2, 5]: 600 g
